Patent US20090035295A1, “Screening Method, Process for Purifying of Non-Diffusible A-Beta Oligomers, Selective Antibodies Against Said Non-Diffusible a-Beta Oligomers and a Process for Manufacturing of Said Antibodies” (Abbott GmgH & Co. KG, priority 2005, published 2009)
Entries after “also recorded” stand apart in the source; their conditions may differ. No end group written: not given here.

Tests used:
[1] = target: T1, Aβ(1-42) globulomer formation (Homo sapiens, UniProt P05067); assay: Induction of Aβ(1-42) globulomer formation by fatty acids replacing SDS (SDS-PAGE); format: biochemical; conditions: fatty acid in place of SDS, neutral pH
T1 construct: Aβ(1-42) synthetic peptide (Cat. No. H-1368, Bachem, Switzerland); purchased Bachem H-1368; host or cells: chemical synthesis; oligomerised in house (HFIP, DMSO, 0.2% SDS or 0.5% fatty acid, dilution)
Procedure: Lanes: (1) control without inducing agent, (2) positive control with 0.2% SDS, (3) 0.5% lauric acid (12:0), (4) 0.5% oleic acid (18:1), (5) linoleic acid […], (6) eicosapentanoic acid (20:5), (7) docosatetranoic acid (22:4), (8) docosahexanoic acid (22:6), (9) positive control with 0.2% SDS, (10) 1% arachidonic acid. Yields of Aβ(1-42) globulomer (g, indicated with arrowheads) differ between various fatty acids;
A solution of Aβ(1-42) globulomers was prepared as described in example 5a of WO2004/067561. Briefly, Aβ(1-42) synthetic peptide (Cat. No. H-1368, Bachem, Switzerland) was suspended in 1,1,1,3,3,3-hexafluoro-2-propanol (HFIP) at […] and incubated for complete solubilization under shaking at 37° C. for 1.5 h. HFIP was removed by evaporation in a SpeedVac and Aβ(1-42) resuspended at a concentration of 5 mM in dimethyl sulfoxide (DMSO) and 20 sec sonicated. The HFIP pretreated Aβ(1-42) was diluted in phosphate buffered solution (PBS) (20 mM NaH2PO4, 140 mM NaCl, pH 7.4) to 400 μM and 1/10 volume 2% SDS (in H2O) added (final concentration of 0.2% sodium dodecyl sulfate (SDS)).

[2] = tested on: neuronal cell-lines; assay: Binding of Aβ(1-42) globulomer to neuronal cell-lines; format: cell-based; conditions: data not shown
[3] = tested on: hippocampal neurons; assay: Binding of Aβ forms to cultured hippocampal neurons (immunofluorescence); format: cell-based, rat
Procedure: (§1) Hippocampal cells from rat brain (QBM Cell Science, Canada) were cultured in 24-well plates on poly-L-lysine coated coverslips (BD Biosciences, Germany) in Neurobasal medium with B27 supplement (Invitrogen, Germany) at 37° C., 5% 002. To some cultures mitosis inhibitors (35 μg/ml uridine, 15 μg/ml 5-fluoro-2′-deoxyuridine) were added at DIV6 to prevent an overgrowing with glia. Unless otherwise stated hippocampal cells were used at DIV13-14.
Cells were rinsed three times with 1 ml medium and fixed with 3.7% buffered formaldehdye (Accustain, Sigma, Germany). Unspecific binding sites were blocked by incubation with 10% normal goat serum in PBS (pH 7.4) for 90 min at room temperature to which 0.1% Triton X-100 was added in the case of intracellular counterstaining. […] After each antibody incubation cells were washed three times with PBS and finally mounted in ProLong antifade reagent (Molecular Probes, Germany).

[4] = tested on: long-term potentiation; assay: Long-term potentiation in rat brain slices (CA1 field potentials); format: cell-based
Procedure: Slices were prepared from male Sprague-Dawley rats (7-8 weeks old). Isolated hemispheres were trimmed and then cut using a vibratome. Slices ([…]) were directly transferred to an interface recording chamber and continuously perfused at 33° C. with oxygenated artificial CSF (aCSF: 118 mM NaCl, 1.24 mM KH2PO4, 10 mM glucose, 2 mM MgSO4, 2.5 mM CaCl2, 5 mM KCl, 25.6 mM NaHCO3) at a flow rate of 1.8 ml/min. Freshly prepared slices were allowed to equilibrate for at least one hour before recording. Field potentials were obtained from stratum radiatum of CA1 using glass microelectrodes (0.8-1.2 MΩ) filled with aCSF. The Schaffer collateral was stimulated by a bipolar tungsten electrode (0.5 MO, Science Products GmbH, Germany). Constant voltage biphasic pulses (0.1 ms/phase; range 1-5 V) were applied once per minute at an intensity yielding 30% of the fEPSP maximum. LTP was induced by 2 trains of 100 Hz (1 sec/train with 10 sec intertrain intervall) using the same intensity and pulse length. […] Signals were digitized by a Power CED 1401 and analyzed using the software Signal 2.14 (Cambridge Electronic Design Ltd., Cambridge). For statistical comparison data were analyzed by 2-way repeated measures ANOVA using SAS.

[5] = In vitro stability in PBS at different temperatures, SDS-PAGE; format: physicochemical
Procedure: The sample at 0.5 mg/ml in 20 mM NaH2PO4; 140 mM NaCl; pH 7.4 was incubated at room temperature and 37° C. for 1 day and 4 days, respectively. An aliquot of 10 μl of the samples was analyzed by SDS-PAGE.
An aliquot of 100 μl of each of the samples was analyzed by SDS-PAGE.

[6] = tested on: APP/Lo mice; assay: Novel object recognition task after active immunization of APP/Lo mice; format: in vivo, mouse; conditions: for RI compared with mice treated with Aβ(1-42) monomer or vehicle: P<0.01, ANOVA, post-hoc Holm-Sidak t-test; for Short term memory for objects: active immunization
Description: APP [V717I] C57BI×FVB female mice (n=36; 6 weeks old) were used for this study (Moechars et al., 1999). All mice were housed and bred in the animal housing facilities of the Catholic University Leuven, Campus Gasthuisberg, in accordance with the Belgian ethical law on housing, breeding and handling laboratory animals.
They were genotyped by polymerase chain reaction (PCR) at the age of 3 weeks and were double checked by a second PCR at the onset of the study. All mice were blind randomised, age-matched and allocated randomly to a treatment. Animals were re-caged by treatment group one day before the onset of the study in order to allow them to familiarize to the new cage context. […] The food was stored under dry and cool conditions in a well-ventilated storage room. The amount of water and food was checked daily, supplied when necessary and standard refreshed twice a week. Mice were housed under a reversed day-night rhythm: 14 hours light/10 hours darkness, light starting at 7 p.m., in standard metal cages type RVS T2 (area of 540 cm^2) equipped with solid floors and layer of bedding litter.
The first injection contained 50% (v/v) complete Freund's Adjuvants (Difco Laboratories, Detroit, Mich., USA, ref no 263810) while the boost injections contained 50% (v/v) incomplete Freund's Adjuvant (Difco Laboratories, Detroit, Mich., USA, ref no 263910). Administration of compounds was performed every 3 weeks during 3 months (at week 0/3/6/9/12). • Novel object recognition task in immunized mice:
After the last injection all mice underwent a novel objection recognition task. The protocol used followed the method as described by Dewachter I. et al., Journal of Neuroscience, 2002, 22(9):3445-3453. Mice were familiarized for one hour to a Plexiglas open-field box (52×52×40 cm) with black vertical walls and a translucent floor, dimly illuminated by a lamp placed underneath the box. The next day the animals were placed in the same box and submitted to a 10 minutes acquisition trial. During this trial mice were placed individually in the open field in the presence of object A (blue ball or red cube, similar sized of ±4 cm), and the duration (timeAA) and the frequency (FreqAA) exploring object A (when the animals snout was directed towards the object at a distance of <1 cm and the mice were actively sniffing in the direction of the object) was recorded by a computerized system (Ethovision, Noldus information Technology, Wageningen, the Netherlands). During a 10 minutes retention trial (second trial) performed 3 hours later, a novel object (object B, red cube or blue ball) was placed together with the familiar object (object A) into the open field. (FreqA and FreqB and TimeA and TimeB, respectively).
The recognition index (RI), defined as the ratio of the duration in which the novel object was explored over the duration in which both objects were explored [TimeB/(TimeA+TimeB)×100], was used to measure non-spatial memory. The duration and frequency object A was explored during the acquisition trial (TimeAA and FreqAA) was used to measure curiosity.

[7] = Intracranial injection in rats: in vivo binding and tissue penetration; conditions: rat
Procedure: For electrophysiological and histological studies, male Sprague-Dawley rats were obtained from Janvier (France) at an age of about 8 weeks.
The rats (260-430 g) were anesthetized with pentobarbital (60 mg/kg i.p.; Narcoren) and fixed in a stereotaxic apparatus according to Paxinos and Watson^36. […] A total volume of 4.3 μL was infused by a 10 μL Hamilton syringe attached to a motorized micropump (WPI, Germany) during 5 min with the cannula being left in place for additional 2 min. […] The infusion was applied via a 10 μL Hamilton syringe during 5 min with the cannula being left in place for additional 5 min.
Therefore, rats were deeply anesthetized with Narcoren. […] Then, the rats were transcardially perfused with 10 mM PBS (pH 7.2) for 5 min, followed by 4% paraformaldehyde (PFA) in PBS. The brains were removed, postfixed overnight in 4% PFA in PBS containing 30% sucrose and transferred into 30% sucrose in PBS for cryoprotection.
A Cy3-labeled donkey anti-mouse antibody (Jackson Laboratories) was used for fluorescence labelling for 1 h. Between the steps and at the end, sections were thoroughly washed in TBST three times for 5 min, after which they were mounted onto glass slides, air-dried and cover-slipped with Vectashield hardest mounting medium containing DAPI (Vector Laboratories) to visualize cell nuclei. All incubations were performed at room temperature. Some sections were also stained with 0.05% thioflavine S (Sigma, Germany) in 50% ethanol for 10 min, followed by two rinses of 100% ethanol for 5 min before embedding in Vectashield. Analysis of labelling was performed under a confocal fluorescence microscope (Zeiss LSM 510 Meta, Germany).

[8] = tested on: glia; assay: Binding of Aβ(1-42) globulomer to glia in hippocampal cultures; format: cell-based, rat; conditions: hippocampal preparation, GFAP positive cells
Procedure: as §1, with “DIV13-14. When Aβ-forms were added, 750 μL fresh 37° C. warm medium containing the Aβ-forms were exchanged of the total 1 ml. Incubation took place for 15 min at 37° C., 5% CO2.” for “DIV13-14.”
Cells were rinsed three times with 1 ml medium and fixed with 3.7% buffered formaldehdye (Accustain, Sigma, Germany). Unspecific binding sites were blocked by incubation with 10% normal goat serum in PBS (pH 7.4) for 90 min at room temperature to which 0.1% Triton X-100 was added in the case of intracellular counterstaining. Primary antibodies (anti Aβ 6E10 (Signet Laboratories, USA), 1:2000; anti GFAP (Dako Cytomation, Germany), 1:2500; anti MAP2 (Chemicon International, Germany), 1:1000) and secondary antibodies (Alexa 488, 1:500; Alexa 635, 1:500; Molecular Probes, Germany) were subsequently incubated for 2 h at room temperature in 10% normal goat serum in PBS (pH 7.4). […]

T1 sequence (P05067 672-713 limits assumed): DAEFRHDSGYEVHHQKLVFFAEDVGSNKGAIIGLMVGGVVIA

In the case of `CCCCC/C=C\C/C=C\C/C=C\C/C=C\CCCC(=O)O` [arachidonic acid], the “Induction of the characteristic 38/48 kDa Aβ(1-42) globulomer” value (“Induction” below) [1] is reported as “induced”.

For `CC/C=C\C/C=C\C/C=C\C/C=C\C/C=C\C/C=C\CCC(=O)O` [docosahexanoic acid], the “Induction” value [1] was “could not generate”.

In the case of `CC/C=C\C/C=C\C/C=C\C/C=C\C/C=C\CCCC(=O)O` [eicosapentanoic acid], the “Induction” value [1] is reported as “created a partly shifted oligomer”.

With `CCCCCCCCCCCC(=O)O` [lauric acid] the “Induction” value [1] was “induced”.

With `CCCCC/C=C\C/C=C\CCCCCCCC(=O)O` [linoleic acid] the “Induction” value [1] was “could not generate”.

For `CCCCCCCC/C=C\CCCCCCCC(=O)O` [oleic acid], the “Induction” value [1] was “induced”.

For “Aβ(1-42) globulomer: soluble, globular, non-covalent association of about 12 Aβ(1-42) peptides generated from synthetic peptide with SDS”, the “Binding to neuronal cell-lines” value [2] was “negative”, the “Binding to hippocampal neurons” value ([3]; 200 nM based on monomer (17 nM globulomer), 15 min, 37° C.) was “strong binding” and the “Hippocampal neurons binding globulomer” value ([3]; DIV8) was −1%. For the same molecule, the “Time after tetanization at which potentiation was significantly impaired (as early as)” value ([4]; 42 nM, p<0.05) was 5 min, the “High frequency stimulation-induced LTP” value ([4]; 42 nM, rat brain slices) was “completely blocks; also recorded: complete block” and the “Basic synaptic functioning (input/output relation)” value ([4]; treated versus untreated slices) was “not impaired”. The “Stable in PBS” value ([5]; PBS, ambient temperature and 37° C.) was “at least 4 days”, the “Globulomer structure maintained without disassembly or further polymerization to fibrils” value ([5]; in vitro, physiological temperature (37° C.)) was “up to 4 days” and the “RI compared with mice treated with Aβ(1-42) monomer or vehicle” value [6] was “significantly higher”. For the same molecule, the “Short term memory for objects” value [6] was “selectively improved”, the “Binding to cells of the ventricle walls” value ([7]; injection into ventricle) was “rapid and persistent binding” and the “Cell toxicity along the ventricle wall (cell density)” value ([7]; injection into ventricle) was “without obvious cell toxicity”. The “Diffusion from ependyme into underlying brain tissue” value ([7]; injection into ventricle) was “without detectable diffusion”, the “Presence in cerebrospinal fluid after injection” value ([7]; injection into ventricle, data not shown) was “completely disappeared” and the Tissue penetration ([7]; intracerebral injection) was “Poor tissue penetration”. For the same molecule, the Binding to glia [8] was “did not bind”.

In the case of “Aβ(20-42) globulomer: truncated globulomer from Aβ(20-42) peptide or thermolysin proteolysis of Aβ(1-42) globulomer (FAEDVGSNKGAIIGLMVGGVVIA; also: globulomer (oligomeric assembly))”, the “RI compared with mice treated with Aβ(1-42) monomer or vehicle” value [6] is reported as “significantly higher”, the “Short term memory for objects” value [6] is reported as “selectively improved” and the “Recognition index (RI)” value ([6]; second encounter, 3 hours after acquisition, P<0.01 vs chance level) is reported as “more than 50%”.

In the case of docosatetranoic acid, the “Induction” value [1] is reported as “could not generate”.
